Measurements as given in patent publication US20250276983A1, “COMPOUNDS AND METHODS FOR MODULATING HER2” (IAMBIC THERAPEUTICS, INC., priority 2022, published 2025).
Where two headings read alike, the source gives them in different places.

Legend:
Assay type in all cases: cell-based
BaF3_HER2WT cells = assay: Cell growth inhibition assay, BaF3_HER2WT; conditions: 72 h, 3 days treatment, CellTiterGlo 2.0, read-out: HER2 WT IC50 (nM), cell growth inhibition
BaF3_EGFRWT cells = assay: Cell growth inhibition assay, BaF3_EGFRWT; conditions: 72 h, 80 ng/mL recombinant human EGF, 3 days treatment, CellTiterGlo 2.0, read-out: EGFR WT IC50 (nM), cell growth inhibition
BaF3_HER2YVMA cells = assay: Cell growth inhibition assay, BaF3_HER2YVMA; conditions: 72 h, read-out: HER2-YVMA IC50 (nM), cell growth inhibition
[1] = BaF3_HER2YVMA cells, 3 days treatment, CellTiterGlo 2.0

Row | SMILES | IC50 (BaF3_HER2WT cells) [nM] | IC50 (BaF3_EGFRWT cells) [nM] | IC50 (BaF3_HER2YVMA cells; [1]) [nM] | IC50 (BaF3_HER2YVMA cells) [nM]
1 | C=C(F)C(=O)N1CC=C(c2ccn3ncnc(Nc4ccc(Oc5ccn6ncnc6c5)c(C)c4)c23)CC1 [Example 26, 1-(4-(4-((4-([1,2,4]triazolo[1,5-a]pyridin-7-yloxy)-3-methylphenyl)amino)pyrrolo[2,1-f][1,2,4]triazin-5-yl)-3,6-dihydropyridin-1(2H)-yl)-2-fluoroprop-2-en-1-one] | 200 to 500 | 1500 to 5000 | 1500 to 5000 | 
2 | C=C(C#N)C(=O)N1CCC(c2ccn3ncnc(Nc4ccc(Oc5ccn6ncnc6c5)c(C)c4)c23)CC1 [Example 27, 2-(4-(4-((4-([1,2,4]triazolo[1,5-a]pyridin-7-yloxy)-3-methylphenyl)amino)pyrrolo[2,1-f][1,2,4]triazin-5-yl)piperidine-1-carbonyl)acrylonitrile] | 500 to 1500 | 1500 to 5000 |  | 1500 to 5000
3 | C=CC(=O)N1CC=C(c2ccn3ncnc(Nc4ccc(Oc5ccn6ncnc6c5)c(C)c4)c23)C1 [Example 28, 1-(3-(4-((4-([1,2,4]triazolo[1,5-a]pyridin-7-yloxy)-3-methylphenyl)amino)pyrrolo[2,1-f][1,2,4]triazin-5-yl)-2,5-dihydro-1H-pyrrol-1-yl)prop-2-en-1-one acetate] | < 200 | 1500 to 5000 | 500 to 1500 | 
4 | Cc1cc(Nc2ncnn3ccc(C4=CCN(C(=O)/C=C/CN(C)C)C4)c23)ccc1Oc1ccn2ncnc2c1 [Example 29, (E)-1-(3-(4-((4-([1,2,4]triazolo[1,5-a]pyridin-7-yloxy)-3-methylphenyl)amino)pyrrolo[2,1-f][1,2,4]triazin-5-yl)-2,5-dihydro-1H-pyrrol-1-yl)-4-(dimethylamino)but-2-en-1-one acetate] | < 200 | 1500 to 5000 | 1500 to 5000 | 
5 | C=C(CN(C)C)C(=O)N1C2C=C(c3ccn4ncnc(Nc5ccc(Oc6ccn7ncnc7c6)c(C)c5)c34)CC1CC2 (stereo not drawn) [Example 30, 1-(3-(4-((4-([1,2,4]triazolo[1,5-a]pyridin-7-yloxy)-3-methylphenyl)amino)pyrrolo[2,1-f][1,2,4]triazin-5-yl)-8-azabicyclo[3.2.1]oct-2-en-8-yl)-2-((dimethylamino)methyl)prop-2-en-1-one acetate] | < 200 | 1500 to 5000 | < 200 | 
6 | Cc1cc(Nc2ccn3ncnc(C4CC5CCC(C4)N5C(=O)/C=C/CN(C)C)c23)ccc1Oc1ccn2cnnc2c1 (stereo not drawn) [Example 33, (E)-1-(3-(5-((4-([1,2,4]triazolo[4,3-a]pyridin-7-yloxy)-3-methylphenyl)amino)pyrrolo[2,1-f][1,2,4]triazin-4-yl)-8-azabicyclo[3.2.1]octan-8-yl)-4-(dimethylamino)but-2-en-1-one acetate] | < 200 | 1500 to 5000 | 200 to 500 | 
7 | Cc1cc(Nc2ncnn3ccc(C4CCN(C(=O)C(F)Cl)CC4)c23)ccc1Oc1ccn2ncnc2c1 (stereo not drawn) [Example 35, 1-(4-(4-((4-([1,2,4]triazolo[1,5-a]pyridin-7-yloxy)-3-methylphenyl)amino)pyrrolo[2,1-f][1,2,4]triazin-5-yl)piperidin-1-yl)-2-chloro-2-fluoroethan-1-one acetate] | < 200 | 1500 to 5000 | < 200 | 
8 | Cc1cc(Nc2ncnn3ccc(C4CCN(C(=O)C5CC(=O)N5)CC4)c23)ccc1Oc1ccn2ncnc2c1 (stereo not drawn) [Example 36, 4-(4-(4-((4-([1,2,4]triazolo[1,5-a]pyridin-7-yloxy)-3-methylphenyl)amino)pyrrolo[2,1-f][1,2,4]triazin-5-yl)piperidine-1-carbonyl)azetidin-2-one acetate] | 1500 to 5000 | 1500 to 5000 | 1500 to 5000 | 
9 | Cc1cc(Nc2ncnn3ccc(C4CN(C(=O)/C=C/CN5CCOCC5)C4)c23)ccc1Oc1ccn2ncnc2c1 [Example 37, (E)-1-(3-(4-((4-([1,2,4]triazolo[1,5-a]pyridin-7-yloxy)-3-methylphenyl)amino)pyrrolo[2,1-f][1,2,4]triazin-5-yl)azetidin-1-yl)-4-morpholinobut-2-en-1-one] | < 200 | 1500 to 5000 | < 200 | 
10 | Cc1cc(Nc2ncnn3ccc(C4CN(C(=O)/C=C/CN5CC(F)C5)C4)c23)ccc1Oc1ccn2ncnc2c1 [Example 38, (E)-1-(3-(4-((4-([1,2,4]triazolo[1,5-a]pyridin-7-yloxy)-3-methylphenyl)amino)pyrrolo[2,1-f][1,2,4]triazin-5-yl)azetidin-1-yl)-4-(3-fluoroazetidin-1-yl)but-2-en-1-one] | < 200 | 1500 to 5000 | < 200 | 
11 | COC/C=C/C(=O)N1CC(c2ccn3ncnc(Nc4ccc(Oc5ccn6ncnc6c5)c(C)c4)c23)C1 [Example 40, (E)-1-(3-(4-((4-([1,2,4]triazolo[1,5-a]pyridin-7-yloxy)-3-methylphenyl)amino)pyrrolo[2,1-f][1,2,4]triazin-5-yl)azetidin-1-yl)-4-methoxybut-2-en-1-one] | 200 to 500 | 1500 to 5000 | 200 to 500 | 
12 | COC1CCN(C/C=C/C(=O)N2CC(c3ccn4ncnc(Nc5ccc(Oc6ccn7ncnc7c6)c(C)c5)c34)C2)C1 (stereo not drawn) [Example 41, (E)-1-(3-(4-((4-([1,2,4]triazolo[1,5-a]pyridin-7-yloxy)-3-methylphenyl)amino)pyrrolo[2,1-f][1,2,4]triazin-5-yl)azetidin-1-yl)-4-(3-methoxypyrrolidin-1-yl)but-2-en-1-one] | < 200 | 1500 to 5000 | < 200 | 
13 | COC1CCN(C/C=C/C(=O)N2CC(c3ccn4ncnc(Nc5ccc(Oc6ccn7ncnc7c6)c(C)c5)c34)C2)CC1 [Example 42, (E)-1-(3-(4-((4-([1,2,4]triazolo[1,5-a]pyridin-7-yloxy)-3-methylphenyl)amino)pyrrolo[2,1-f][1,2,4]triazin-5-yl)azetidin-1-yl)-4-(4-methoxypiperidin-1-yl)but-2-en-1-one] | < 200 | 1500 to 5000 | < 200 | 
14 | Cc1cc(Nc2ncnn3ccc(C4CN(C(=O)/C=C/CC(C)C)C4)c23)ccc1Oc1ccn2ncnc2c1 [Example 43, (E)-1-(3-(4-((4-([1,2,4]triazolo[1,5-a]pyridin-7-yloxy)-3-methylphenyl)amino)pyrrolo[2,1-f][1,2,4]triazin-5-yl)azetidin-1-yl)-5-methylhex-2-en-1-one] | < 200 | 1500 to 5000 | 200 to 500 | 
15 | C=CC(=O)N1CC2CCC(C1)N2c1ccn2ncnc(Nc3ccc(Oc4ccn5ncnc5c4)c(C)c3)c12 [Example 44, 1-(8-(4-((4-([1,2,4]triazolo[1,5-a]pyridin-7-yloxy)-3-methylphenyl)amino)pyrrolo[2,1-f][1,2,4]triazin-5-yl)-3,8-diazabicyclo[3.2.1]octan-3-yl)prop-2-en-1-one] | < 200 | 1500 to 5000 | < 200 | 
16 | Cc1cc(Nc2ncnn3ccc(N4C5CCC4CN(C(=O)/C=C/CN(C)C)C5)c23)ccc1Oc1ccn2ncnc2c1 [Example 45, (E)-1-(8-(4-((4-([1,2,4]triazolo[1,5-a]pyridin-7-yloxy)-3-methylphenyl)amino)pyrrolo[2,1-f][1,2,4]triazin-5-yl)-3,8-diazabicyclo[3.2.1]octan-3-yl)-4-(dimethylamino)but-2-en-1-one] | < 200 | 1500 to 5000 | < 200 | 
